The source of these data is patent publication US20230286995A1, “METABOLICALLY STABLE PYRIMIDINYL DIHYDROQUINOXALINONES AS TUBULIN POLYMERIZATION INHIBITORS” (UNIVERSITY OF TENNESSEE RESEARCH FOUNDATION, priority 2022, published 2023).

Read-outs that look alike come from different tables or passages of the source.

The subject of one data set is DU-145/TxR. Briefly: Cytotoxicity assay (MTS, 72 h). The data set is classed as cell-based. The following applies: Homo sapiens, DU-145, read-out: IC50 ± SEM (nM) DU-145/TxR; Table 2.
The test system of a further data set is A375. Description: Cytotoxicity assay (MTS, 72 h). The following applies: Homo sapiens.
In the next data set the test system is PC3/TxR. Briefly: Cytotoxicity assay (MTS, 72 h). The data set is classed as cell-based. To be noted: Homo sapiens, Table 6, paclitaxel-resistant, read-out: IC50 (nM) Prostate cancer PC3/TxR.
A further data set concerns DU-145. Briefly: Cytotoxicity assay (MTS, 72 h). The data set is classed as cell-based. To be noted: Homo sapiens, DU-145, read-out: IC50 ± SEM (nM) DU-145; Table 2.
The subject of the next data set is DU-145/VxR xenografts. The arrangement: species or system NSG mice. To be noted: mouse, in vivo.
Another data set can be described thus: in vitro. To be noted: rat, liver microsomes.
The subject of data set [1] is MDA-MB-231 BrM2 brain metastases. Briefly: MDA-MB-231-BrM2 brain metastasis model, survival study (Experiment 2). The data set is classed as in vivo, NSG mice.
Data set [2] can be described thus: Toxicity of 5m at higher dose in mice. It is filed as in vivo. To be noted: 5 mg/kg.
The subject of data set [3] is MDA-MB-231 BrM2 brain metastases.
The next data set has as its system Mia PaCa-2 cells. Briefly: Scratch migration assay (PDAC). It is filed as cell-based, human. The following applies: 5m 2 nM, PTX 4 nM, 48 h. How it is done:
The Mia PaCa-2 cells (25,000 cells/well) were seeded in 96-well plates and allowed to adhere overnight. At 80-90% confluence, scratch was made with a wound maker. After washing off the debris, medium was replaced and tested compounds were added. Cells were live monitored with IncuCyte and pictures obtained every 2 h. Compared with the control, the wound width of cells under different treatment conditions was quantified according to the endpoint width over starting point.

For data set [4] the following is noted: rats.
The subject of the next data set is A-253 and Detroit 562. Briefly: Cytotoxicity in head and neck cancer cell lines. The data set is classed as cell-based. To be noted: Homo sapiens; FIG. 39A; read-out: IC50 values, range over A-253 and Detroit 562. The procedure:
A panel of dihydroquinoxalinones were tested in two head and neck cancer cell lines, A-253 and Detroit 562. A-253 cells are a human salivary epidermoid carcinoma cell line, whereas Detroit 562 is a head and neck squamous cell carcinoma (HNSCC). Oral cancer is the most common type of head and neck cancer and more than 90% of oral cancers are either oral or oropharyngeal squamous cell carcinoma (SCC). A major clinical dilemma is chemotherapy efficiency targeted for head and neck squamous cell carcinoma (HNSCC). The inability to successfully complete cancer treatment utilizing a standard surgical approach due to an advanced stage of HNSCC and/or resistance of SCC cells to conventional chemotherapy and/or radiotherapy leads to a continuous search for new compounds with cytostatic activity and minor side effects.
FIGS. 39B and 39C illustrate the graphical representation of the data. […] For example, at treatment levels as low of 0.5 nM, 12k was able to prevent head and neck cancer cell proliferation almost completely, whereas it required 5 nM of 17ya to achieve similar antiproliferation.

Data set [5] has as its system MDA-MB-231/VxR xenografts. Briefly: Orthotopic MDA-MB-231/VxR xenograft model. The data set is classed as in vivo, NSG mice. The following applies: 5m IV 1×/wk; Compound 17ya 20 mg/kg 3×/wk.
Data set [6] can be described thus: Microsomal stability assay. The following applies: Table 3; liver microsomes; mean (% CV). For orientation: Liver microsomes are a subcellular fraction often used to study metabolism.

`CCNc1nc2c(c(N3CC(=O)Nc4cc(OC)ccc43)n1)CCC2` [Compound 5v, 4-(2-(ethylamino)-6,7-dihydro-5H-cyclopenta[d]pyrimidin-4-yl)-7-methoxy-3,4-dihydroquinoxalin-2(1H)-one]: the IC50 with DU-145/TxR is 1.9 ± 0.3 nM; in the data set with A375 (A-375, read-out: IC50 (nM) Melanoma A375, Table 1) it was 0.7 ± 0.1 nM; in the data set on A375 (A-375, read-out: IC50 (nM) Melanoma Cancer A375, Table 6), ~1.6 nM; in the data set on A375 (A-375, read-out: IC50 ± SEM (nM) A375, Table 2), 0.4 ± 0.04 nM; in the data set on PC3/TxR it was 0.8 ± 0.1 nM; in the data set with DU-145 it was 1.8 ± 0.3 nM.
As a reminder, the CLint scaled is a measure of how fast metabolising enzymes remove a compound, apart from limits set by blood flow. A lower CLint scaled goes with slow turnover. The term Cmax denotes the peak of the concentration-time curve. `COc1ccc2c(c1)NC(=O)CN2c1nc(C)nc2c1CCC2` [Compound 5m, 7-methoxy-4-(2-methyl-6,7-dihydro-5H-cyclopenta[d]pyrimidin-4-yl)-3,4-dihydroquinoxalin-2(1H)-one]: the “endpoint average tumor volume” value in the data set with DU-145/VxR xenografts is reported as ~80 mm^3. In “in vitro”, this compound registered a CLint scaled at 1 μg/mL of 86.9 mL/min/kg. In data set [1] (1.0 mg/kg IV twice per week, vehicle 25 days), this compound came in with a median survival of 36.5 days. For the same compound, the “body weight” value in data set [1] (Experiment 2) was “gained weight through day 21 of dosing”. Moreover, the “survival of all treated mice” value in [1] (all vehicle mice deceased by 30 days) is > 30 days. For the same compound, the “increased metastasis (photon flux) in vehicle vs 5m treated representative mouse” value in data set [1] (day 28, n=1) came to 6.7 fold. Moreover, the “metastatic progression in the brain, in vivo photon flux” value in data set [1] (mouse, in vivo) is given as “delayed metastatic progression in the brain”. The “day until which representative treated mouse lived” value in [1] (vehicle mouse died on day 28) turned out to be 35 days. The “toxicity at higher dose” value in data set [2] is “had toxicity”. Moreover, the “photon flux in ex vivo brain of representative animal” value in data set [3] (1 minute capture, vehicle 6.01×10^7) is 1.51×10^7 p/s. Further, the “body weight” value in data set [3] (Experiment 1) was “maintain body weight through day 24”. Further, the “extracranial metastasis, ex vivo photon flux” value in data set [3] (bone, lungs, spleen) is “statistically reduced metastasis to bone, lungs, and spleen”. Moreover, in data set [3] (mouse, in vivo), the “adverse effects at initial dose” value was “mice lost weight and had diarrhea”. Moreover, the “cell migration / wound healing” value in the data set on Mia PaCa-2 cells is on record as “more effectively inhibited wound healing”. In addition, in data set [4] (Intravenous (2 mg/kg)), the “Clearance” value amounted to 36.9 mL/min/kg, the highest concentration (Cmax) stood at 806 ng/mL and the “Volume of distribution” value is recorded as 23.7 L/kg. Further, the “t1/2” value in [4] (Intravenous (2 mg/kg), terminal half-life) turned out to be 14.7 h. Further, the “Cumulative urinary excretion (%)” value in [4] (Intravenous (2 mg/kg), unchanged form) was 0.00134%. In data set [4] (Oral (5 mg/kg)), the “Bioavailability (%)” value was 3.2% and the maximum concentration (Cmax) came out at 34.7 ng/mL. Also, the IC50 in the data set on A-253 and Detroit 562 is 0.52 to 3.2 nM. In addition, the “tumor growth of MDA-MB-231/VxR xenografts” value in data set [5] is listed as “flat tumor growth curve”. The “Metabolic stability in human t1/2” value in [6] amounted to 0.893 h.
